Patent US20250090437A1, “COSMETIC COMPOUNDING AGENT, COSMETIC AND PRODUCTION METHOD THEREOF” (MIYOSHI OIL & FAT CO., LTD., priority 2019, published 2025)

Experiments:
[1] = Water retention property test 1; assay type: physicochemical; conditions: 80 wt % aqueous solution; for Water retention property test 1 Post-test moisture rate / Water retention property test 1 Rate of reduction in moisture / Post-test moisture rate / Rate of reduction in moisture: 24 hours at 40° C. and 25% RH; for Pre-test moisture rate: before the test (Karl Fischer); for Post-test moisture rate / Rate of reduction in moisture: unsealed
Method: A moisture rate after 24 hours was again measured (post-test moisture rate: B), followed by using the formula below to calculate a rate of reduction in moisture so as to evaluate the water retention property. • Pre-test moisture rate: A (%) • Post-test moisture rate: B (%)

[2] = Water retention property test 2 (hydrates); assay type: physicochemical; conditions: hydrate (anhydrides: aqueous solution at mono- to trihydrate concentration); for Pre-test moisture rate: before the test; for Post-test moisture rate / Rate of reduction in moisture: unsealed, 24 hours at 40° C. and 25% RH
Method: (2) Water retention property test 2 The water retention property of the hydrate of each compound was evaluated. Hydrates were used in the cases of the compounds C1 to C38, C40 to C49 and C56 to C59; however, since the compounds C39 and C62 to C64 were anhydrides, there were used aqueous solutions prepared by adding water so that a concentration would be that of monohydrate to trihydrate. The moisture rate of the sample(s) was confirmed using a Karl Fischer moisture meter (pre-test moisture rate: A). Next, 1.0 g of each of these samples was added to a screw tube, and this screw tube, while remaining unsealed, was then left to stand still for 24 hours in a thermo-hygrostat set to 40° C. and 25% RH. A moisture rate after 24 hours was again measured (post-test moisture rate: B), followed by calculating a rate of reduction in moisture in a similar manner as above so as to evaluate the water retention property. Here, a comparative evaluation was performed on each hydrate of the compounds C1 to C38, C40 to C49 and C56 to C59 together with an aqueous solution(s) of the compound C39 having a concentration(s) corresponding to the numbers of these hydration waters.
(monohydrates in compounds C1 to C38, C40 to C49 and C56 to C59 of working examples C62 to C99, C103 to C116 with compound C39 of working example C100, compound C62 of comparative example C4, compound C63 of comparative example C7 and compound C64 of comparative example C10)
(dihydrates in compounds C1 to C38, C40 to C49 and C56 to C59 of working examples C62 to C99, C103 to C116 with compound C39 of working example C101, compound C62 of comparative example C5, compound C63 of comparative example C8 and compound C64 of comparative example C11)
(trihydrates in compounds C1 to C38, C40 to C49 and C56 to C59 of working examples C62 to C99, C103 to C116 with compound C39 of working example C102, compound C62 of comparative example C6, compound C63 of comparative example C9 and compound C64 of comparative example C12)

Structure (SMILES)	Water retention property test 1 Pre-test moisture rate [1]	Water retention property test 1 Post-test moisture rate [1]	Water retention property test 1 Rate of reduction in moisture [1]	other results
CC(O)C(=O)O.N (stereo not drawn) [Compound C24]	20.0%	19.0%	4.9%	
C[N+](C)(C)CCO.O=C1OC(C(O)CO)C([O-])=C1O (stereo not drawn) [Compound C57]				Pre-test moisture rate [1]: 20.0%; Post-test moisture rate [1]: 19.0%; Rate of reduction in moisture [1]: 5.0%
CC(O)C(=O)[O-].OCC[N+](CCO)(CCO)CCO [Compound C26]	20.0%	19.0%	5.0%	
CC(CO)CO [Compound C45]	20.0%	19.5%	2.5%	
C[N+](C)(C)CC(O)CC(=O)O.O=C1O[C@H]([C@@H](O)CO)C([O-])=C1O [Compound C58]				Pre-test moisture rate [1]: 20.0%; Post-test moisture rate [1]: 19.2%; Rate of reduction in moisture [1]: 4.1%
C[N+](C)(C)CCO.O=C([O-])C=CC(=O)O [Compound C30]	20.0%	19.0%	5.5%	
CS(=O)(=O)O.NC(CO)(CO)CO [Compound C22]	20.0%	19.8%	1.2%	
CC(O)C(=O)[O-].CCC(CO)(CO)[N+](CC(O)CO)(CC(O)CO)CC(O)CO (stereo not drawn) [Compound C25]	20.0%	19.0%	5.0%	
CS(=O)(=O)[O-].C[N+](C)(C)CCO [Compound C32]	20.0%	19.6%	2.2%	
CC(O)C(=O)O.OCCNCCO [Compound C2]	20.0%	19.0%	4.8%	
CC(O)C(=O)O.NCCO (stereo not drawn) [Compound C1]	20.0%	19.3%	3.5%	
NCCO.O=C1OC(C(O)CO)C(O)=C1O (stereo not drawn) [Compound C40]	20.0%	19.5%	2.3%	
O=C1OC(C(O)CO)C(O)=C1O.OCCNCCO (stereo not drawn) [Compound C41]	20.0%	19.2%	4.1%	
CC(N)(CO)CO.O=C1O[C@H]([C@@H](O)CO)C(O)=C1O [Working example C116]				Pre-test moisture rate [2]: 11.4%; Post-test moisture rate [2]: 11.1%; Rate of reduction in moisture [2]: 2.9%
CC(=O)O.NC(CO)CO [Working example C67]				Pre-test moisture rate [2]: 19.3%; Post-test moisture rate [2]: 18.8%; Rate of reduction in moisture [2]: 2.8%
CC(O)C(=O)O.OCCN(CCO)CCO [Working example C66]				Pre-test moisture rate [2]: 18.4%; Post-test moisture rate [2]: 17.7%; Rate of reduction in moisture [2]: 3.8%
CC(=O)OCC[N+](C)(C)C.O=C1O[C@H]([C@@H](O)CO)C([O-])=C1O [Compound C59]				Pre-test moisture rate [1]: 20.0%; Post-test moisture rate [1]: 19.3%; Rate of reduction in moisture [1]: 3.5%
